Test system: 349418-098-R tumor spheroid viability
Test: Anticancer human tumor 349418-098-R patient-derived lung adenocarcinoma cell line growth inhibition
Settings: spheroids with HUVEC and MSC; for IC50: curve of first compound; for viability, T/C: stronger effect = lower value
Source text: Multicellular complex tumor spheroid response to DNA repair inhibitors in combination with DNA-damaging drugs
This study explores the anticancer activities of DNA-damaging drugs and inhibitors of DNA damage repair, both as single agents and in combinations. Complex tumor spheroids comprised of malignant cells, endothelial cells and mesenchymal stem cells served as an in vitro model for human solid tumors. This model system incorporates physiologically relevant features and patient-derived or established malignant cell lines with clinically relevant genetic alterations from many tumor types. Twenty-six patient-derived or established malignant cell lines were evaluated representing sarcoma, melanoma, small cell lung cancer (SCLC), non-small cell lung cancer (NSCLC), as well as bladder, ovarian and pancreatic cancers. The concentration ranges selected for each drug and investigational agent were based upon clinically achievable concentrations if the clinical Cmax of the agent was known.
Compounds. The drugs and compounds olaparib (NSC753686), talazoparib (NSC767125), berzosertib (NSC777718), elimusertib (NSC800525), nedisertib (NSC802822), VX-984 (NSC792969), AZD-1390 (NSC803789), temozolomide (NSC362856), topotecan (NSC609699), trabectedin (NSC813783), staurosporine (NSC755774), and gemcitabine (NSC613327) were obtained from the National Cancer Institute (NCI) Developmental Therapeutics Program Chemical Repository. The FDA-approved anticancer drug set is available from the Developmental Therapeutics Program at https://dtp.cancer.gov/organization/dscb/obtaining/available_plates.htm. […] The stock solutions were prepared in dimethyl sulfoxide (DMSO, Sigma-Aldrich, St. Louis, MO, cat. D2650) at 400-fold the tested concentration and stored at -70 degrees C. Prior to their use, the stock solutions were diluted in fresh medium and the final DMSO concentration in the assay was 0.25% (v/v). All drugs and investigational agents were tested over a range starting from a high concentration at or near the clinical Cmax and decreasing in half-log increments. If the clinical Cmax for an agent had not been determined, the highest concentration tested was 10 microM.
Cell Lines. The patient-derived cancer cell (PDC) lines: 156681-154-R-J1-PDC, 283228-195-R-J1-PDC, 287954-098-R-J1-PDC, 292921-168-R-J2-PDC, 349418-098-R-PDC, 425362-245-T-J1-PDC, 556581-035-R-J1-PDC, and BL0293-F563-PDC were received from the NCI Patient-Derived Models Repository (PDMR, https://pdmr.cancer.gov). The established cell lines HS-SY-2 (RRID:CVCL_8719), MPNST, and SYO-1 (RRID:CVCL_7146) were obtained from the Sloan Kettering Institute. The alveolar soft parts sarcoma cell line ASPS-1 (RRID:CVCL_S738) was established at the NCI and grown from internal seed stocks. The following established cell lines were purchased from the American Type Culture Collection (ATCC, Manassas, VA): G-401 (ATCC, cat. CRL-1441, RRID:CVCL_0270), SW982 (ATCC, cat. HTB-93, RRID:CVCL_1734), VA-ES-BJ (ATCC, cat. CRL-2138, RRID:CVCL_1785), NCI-H719 (ATCC, cat. CRL-5837, RRID:CVCL_1582), NCI-H196 (ATCC, cat. CRL-5823, RRID:CVCL_1509), NCI-H841 (ATCC, cat. CRL-5845, RRID:CVCL_1595), NCI-H1618 (ATCC, cat. CRL-5879, RRID:CVCL_1480), NCI-H1876 (ATCC, cat. CRL-5902, RRID:CVCL_1503), DMS 114 (ATCC, cat. CRL-2066; RRID:CVCL_1174), NCI-H211 (ATCC, cat. CRL-5824; RRID:CVCL_1529), and SW 1271 (ATCC, cat. CRL-2177, RRID:CVCL_1716). The small cell lung cancer cell line COR-L88 was purchased from Sigma-Aldrich (cat. 92031917-1VL, RRID:CVCL_1141). The non-small cell lung cancer cell lines NCI-H226 (RRID:CVCL_1544) and NCI-H322M (RRID:CVCL_1557) were established at the NCI and grown from internal seed stocks. Pooled donor human umbilical vein endothelial cells (HUVEC, Lonza, cat. CC-2519) and human mesenchymal stem cells (hMSC, Lonza, cat. PT-2501) were purchased from Lonza (Walkersville, MD).
Cell Culture. All cells were maintained in an incubator at 37 degrees C and 5% CO2 with 95% humidity. […]

[1] = second compound 0.003 µM, first compound 0.0316 µM
[2] = second compound 0.003 µM, first compound 0.1 µM
[3] = second compound 0.003 µM, first compound 0.316 µM
[4] = second compound 0.003 µM, first compound 1 µM
[5] = second compound 0.003 µM, first compound 3.16 µM
[6] = second compound 0.003 µM, first compound 10 µM
[7] = second compound 0.00949 µM, first compound 0.0316 µM
[8] = second compound 0.00949 µM, first compound 0.1 µM
[9] = second compound 0.00949 µM, first compound 0.316 µM
[10] = second compound 0.00949 µM, first compound 1 µM
[11] = second compound 0.00949 µM, first compound 3.16 µM
[12] = second compound 0.00949 µM, first compound 10 µM
[13] = second compound 0.03 µM, first compound 0.0316 µM
[14] = second compound 0.03 µM, first compound 0.1 µM
[15] = second compound 0.03 µM, first compound 0.316 µM
[16] = second compound 0.03 µM, first compound 1 µM
[17] = second compound 0.03 µM, first compound 3.16 µM
[18] = second compound 0.03 µM, first compound 10 µM
[19] = second compound 0.0949 µM, first compound 0.0316 µM
[20] = second compound 0.0949 µM, first compound 0.1 µM
[21] = second compound 0.0949 µM, first compound 0.316 µM
[22] = second compound 0.0949 µM, first compound 1 µM
[23] = second compound 0.0949 µM, first compound 3.16 µM
[24] = second compound 0.0949 µM, first compound 10 µM
[25] = second compound 0.3 µM, first compound 0.0316 µM
[26] = second compound 0.3 µM, first compound 0.1 µM
[27] = second compound 0.3 µM, first compound 0.316 µM
[28] = second compound 0.3 µM, first compound 1 µM
[29] = second compound 0.3 µM, first compound 3.16 µM
[30] = second compound 0.3 µM, first compound 10 µM
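Further: spheroids exposed to compound for 7 days before measurement.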
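Wherever viability, T/C is given: percent of vehicle control viability with 100% = DMSO-treated spheroids.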

Compound	IC50 (second compound 0.003 µM)	IC50 (second compound 0.00949 µM)	IC50 (second compound 0.03 µM)	IC50 (second compound 0.0949 µM)	IC50 (second compound 0.3 µM)	viability, T/C [1]	viability, T/C [2]	viability, T/C [3]	viability, T/C [4]	viability, T/C [5]	viability, T/C [6]	viability, T/C [7]	viability, T/C [8]	viability, T/C [9]	viability, T/C [10]	viability, T/C [11]	viability, T/C [12]	viability, T/C [13]	viability, T/C [14]	viability, T/C [15]	other results
COc1ccc([C@@H](O)c2cc(-c3ncnc4cc(N5CCOCC5)ccc34)c(F)cc2Cl)nn1 + CC[C@@]1(O)C(=O)OCc2c1cc1n(c2=O)Cc2cc3c(CN(C)C)c(O)ccc3nc2-1	7.87 µM	6.18 µM	0.679 µM	< 0.0316 µM	< 0.0316 µM	103%	107%	106%	106%	89.2%	39%	90.1%	102%	106%	102%	82.8%	26.5%	69.8%	78.5%	60.4%	viability, T/C [16]: 43.9%; viability, T/C [17]: 26.1%; viability, T/C [18]: 18.9%; viability, T/C [19]: 18.4%; viability, T/C [20]: 11.6%; viability, T/C [21]: 14.2%; viability, T/C [22]: 13.7%; viability, T/C [23]: 11.4%; viability, T/C [24]: 9.78%; viability, T/C [25]: 4.47%; viability, T/C [26]: 3.97%; viability, T/C [27]: 4.59%; viability, T/C [28]: 4.78%; viability, T/C [29]: 4.77%; viability, T/C [30]: 3.94%
[2H]c1nc(C)nc([2H])c1-c1cc(NC[C@@H](C)c2cccc3c(C(=O)NC)ccnc23)ncn1 + CC[C@@]1(O)C(=O)OCc2c1cc1n(c2=O)Cc2cc3c(CN(C)C)c(O)ccc3nc2-1	> 10 µM	> 10 µM	7.51 µM	< 0.0316 µM	< 0.0316 µM	96.3%	103%	97.9%	105%	102%	102%	93.7%	101%	98.5%	100%	102%	97.2%	78.9%	67.9%	75.5%	viability, T/C [16]: 71.1%; viability, T/C [17]: 53.9%; viability, T/C [18]: 48.7%; viability, T/C [19]: 13.9%; viability, T/C [20]: 15.4%; viability, T/C [21]: 11.2%; viability, T/C [22]: 13.1%; viability, T/C [23]: 7.36%; viability, T/C [24]: 6.4%; viability, T/C [25]: 4.73%; viability, T/C [26]: 5.56%; viability, T/C [27]: 4.91%; viability, T/C [28]: 4.06%; viability, T/C [29]: 4.8%; viability, T/C [30]: 3.56%

— PubChem BioAssay AID1845197 (Molecular Pharmacology Branch, DTP, NCI, 2023)
